The source made the active and inactive calls. The rule behind the calls is not given here.
Experiments:
HepG2 = assay: Antiproliferative activity against human HepG2 cells after 72 hrs by MTT assay; format: functional, cell-based; conditions: HepG2, 72 h
MCF7 = assay: Antiproliferative activity against human MCF7 cells after 72 hrs by MTT assay; format: functional, cell-based; conditions: MCF7, 72 h
BJ = assay: Antiproliferative activity against human BJ cells after 72 hrs by MTT assay; format: cell-based
SW-620 = assay: Antiproliferative activity against human SW620 cells after 72 hrs by MTT assay; format: functional, cell-based; conditions: SW-620, 72 h
HeLa = assay: Antiproliferative activity against human HeLa cells after 72 hrs by MTT assay; format: functional, cell-based
CAKI-2 = assay: Cytotoxicity against human Caki2 cells after 72 hrs by MTT assay; format: functional, cell-based; conditions: CAKI-2, 72 h
[1] = Drug uptake in human Caki2 cells at 50 uM measured after 5 hrs by Phalloidin CruzFluorTM 488 conjugate/propidium iodide staining based fluorescence microscopic analysis; format: ADME, cell-based; conditions: caki-2, 5 h
[2] = Drug uptake in nucleus of human Caki2 cells at 50 uM measured after 5 hrs by Phalloidin CruzFluorTM 488 conjugate/propidium iodide staining based fluorescence microscopic analysis; format: ADME, subcellular; conditions: caki-2, 5 h
Calf thymus DNA [3] = assay: Binding affinity to calf thymus DNA assessed as change in melting temperature at drug/DNA ratio of 0.25 by spectrophotmetric method; format: nucleic-acid assay; conditions: Bos taurus
[4] = molecular target: T1, DNA topoisomerase 1 (Homo sapiens) (UniProt P11387); assay: Inhibition of human topoisomerase1-mediated DNA relaxation assessed as DNA intercalation at 5 to 50 uM using supercoiled pUC19 as substrate pretreated with substrate for 45 mins followed by enzyme addition measured by agarose gel electrophoresis
T1 sequence (whole entry): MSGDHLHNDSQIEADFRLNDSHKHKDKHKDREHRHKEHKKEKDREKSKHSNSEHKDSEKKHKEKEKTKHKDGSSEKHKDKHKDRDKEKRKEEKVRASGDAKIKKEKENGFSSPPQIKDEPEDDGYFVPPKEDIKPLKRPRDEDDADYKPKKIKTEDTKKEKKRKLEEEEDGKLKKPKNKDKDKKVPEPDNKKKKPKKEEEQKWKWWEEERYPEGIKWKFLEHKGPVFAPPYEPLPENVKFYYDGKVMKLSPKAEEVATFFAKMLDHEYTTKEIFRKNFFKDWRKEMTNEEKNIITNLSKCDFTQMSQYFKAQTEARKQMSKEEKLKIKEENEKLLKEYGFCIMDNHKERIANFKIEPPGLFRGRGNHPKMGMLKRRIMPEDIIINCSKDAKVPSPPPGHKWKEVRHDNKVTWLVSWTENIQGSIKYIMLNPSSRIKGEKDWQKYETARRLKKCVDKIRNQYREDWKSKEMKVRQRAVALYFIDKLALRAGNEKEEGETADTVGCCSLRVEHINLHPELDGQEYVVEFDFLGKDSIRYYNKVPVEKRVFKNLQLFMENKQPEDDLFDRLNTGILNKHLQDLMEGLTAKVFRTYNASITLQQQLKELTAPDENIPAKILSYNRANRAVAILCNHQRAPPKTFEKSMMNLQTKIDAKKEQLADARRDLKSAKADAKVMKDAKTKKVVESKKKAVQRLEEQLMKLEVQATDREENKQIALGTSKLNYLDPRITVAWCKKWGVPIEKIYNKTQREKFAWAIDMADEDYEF

[5] = Drug uptake in cytoplasm of human Caki2 cells at 50 uM measured after 5 hrs by Phalloidin CruzFluorTM 488 conjugate/propidium iodide staining based fluorescence microscopic analysis; format: ADME, subcellular; conditions: caki-2, 5 h
Calf thymus DNA [6] = assay: Binding affinity to calf thymus DNA assessed as change in melting temperature at drug/DNA ratio of 0.5 by spectrophotmetric method; format: nucleic-acid assay; conditions: Bos taurus
[7] = molecular target: T1, DNA topoisomerase 1 (Homo sapiens); assay: Poison activity at human topoisomerase1 assessed as accumulation of nicked DNA at 20 uM using supercoiled pUC19 as substrate pretreated with substrate for 45 mins followed by enzyme addition measured by agarose gel electrophoresis relative to control
[8] = molecular target: T1, DNA topoisomerase 1 (Homo sapiens); assay: Poison activity at human topoisomerase1 assessed as accumulation of nicked DNA at 50 uM using supercoiled pUC19 as substrate pretreated with substrate for 45 mins followed by enzyme addition measured by agarose gel electrophoresis relative to control
[9] = molecular target: T1, DNA topoisomerase 1 (Homo sapiens); assay: Poison activity at human topoisomerase1 assessed as accumulation of nicked DNA at 5 to 50 uM using supercoiled pUC19 as substrate pretreated with substrate for 45 mins followed by enzyme addition measured by agarose gel electrophoresis
[10] = molecular target: T1, DNA topoisomerase 1 (Homo sapiens); assay: Poison activity at human topoisomerase1 assessed as accumulation of nicked DNA at 10 uM using supercoiled pUC19 as substrate pretreated with substrate for 45 mins followed by enzyme addition measured by agarose gel electrophoresis relative to control
Calf thymus DNA [11] = assay: Binding affinity to calf thymus DNA assessed as change in melting temperature at drug/DNA ratio of 1 by spectrophotmetric method; format: nucleic-acid assay; conditions: Bos taurus
Calf thymus DNA [12] = assay: Binding affinity to calf thymus DNA at 50 uM by circular dichroism spectral analysis; format: nucleic-acid assay; conditions: Bos taurus
Calf thymus DNA [13] = assay: Binding affinity to calf thymus DNA at 1 to 25 uM by circular dichroism spectral analysis; format: nucleic-acid assay; conditions: Bos taurus
[14] = molecular target: DNA topoisomerase 2-alpha (Homo sapiens) (UniProt P11388); assay: Poison activity at human topoisomerase2 assessed as accumulation of linear DNA at 10 to 50 uM using supercoiled pUC19 as substrate pretreated with substrate for 45 mins followed by […] measured by ethidium bromide staining based agarose gel electrophoresis
Sequence of DNA topoisomerase 2-alpha (Homo sapiens) (P11388 whole entry): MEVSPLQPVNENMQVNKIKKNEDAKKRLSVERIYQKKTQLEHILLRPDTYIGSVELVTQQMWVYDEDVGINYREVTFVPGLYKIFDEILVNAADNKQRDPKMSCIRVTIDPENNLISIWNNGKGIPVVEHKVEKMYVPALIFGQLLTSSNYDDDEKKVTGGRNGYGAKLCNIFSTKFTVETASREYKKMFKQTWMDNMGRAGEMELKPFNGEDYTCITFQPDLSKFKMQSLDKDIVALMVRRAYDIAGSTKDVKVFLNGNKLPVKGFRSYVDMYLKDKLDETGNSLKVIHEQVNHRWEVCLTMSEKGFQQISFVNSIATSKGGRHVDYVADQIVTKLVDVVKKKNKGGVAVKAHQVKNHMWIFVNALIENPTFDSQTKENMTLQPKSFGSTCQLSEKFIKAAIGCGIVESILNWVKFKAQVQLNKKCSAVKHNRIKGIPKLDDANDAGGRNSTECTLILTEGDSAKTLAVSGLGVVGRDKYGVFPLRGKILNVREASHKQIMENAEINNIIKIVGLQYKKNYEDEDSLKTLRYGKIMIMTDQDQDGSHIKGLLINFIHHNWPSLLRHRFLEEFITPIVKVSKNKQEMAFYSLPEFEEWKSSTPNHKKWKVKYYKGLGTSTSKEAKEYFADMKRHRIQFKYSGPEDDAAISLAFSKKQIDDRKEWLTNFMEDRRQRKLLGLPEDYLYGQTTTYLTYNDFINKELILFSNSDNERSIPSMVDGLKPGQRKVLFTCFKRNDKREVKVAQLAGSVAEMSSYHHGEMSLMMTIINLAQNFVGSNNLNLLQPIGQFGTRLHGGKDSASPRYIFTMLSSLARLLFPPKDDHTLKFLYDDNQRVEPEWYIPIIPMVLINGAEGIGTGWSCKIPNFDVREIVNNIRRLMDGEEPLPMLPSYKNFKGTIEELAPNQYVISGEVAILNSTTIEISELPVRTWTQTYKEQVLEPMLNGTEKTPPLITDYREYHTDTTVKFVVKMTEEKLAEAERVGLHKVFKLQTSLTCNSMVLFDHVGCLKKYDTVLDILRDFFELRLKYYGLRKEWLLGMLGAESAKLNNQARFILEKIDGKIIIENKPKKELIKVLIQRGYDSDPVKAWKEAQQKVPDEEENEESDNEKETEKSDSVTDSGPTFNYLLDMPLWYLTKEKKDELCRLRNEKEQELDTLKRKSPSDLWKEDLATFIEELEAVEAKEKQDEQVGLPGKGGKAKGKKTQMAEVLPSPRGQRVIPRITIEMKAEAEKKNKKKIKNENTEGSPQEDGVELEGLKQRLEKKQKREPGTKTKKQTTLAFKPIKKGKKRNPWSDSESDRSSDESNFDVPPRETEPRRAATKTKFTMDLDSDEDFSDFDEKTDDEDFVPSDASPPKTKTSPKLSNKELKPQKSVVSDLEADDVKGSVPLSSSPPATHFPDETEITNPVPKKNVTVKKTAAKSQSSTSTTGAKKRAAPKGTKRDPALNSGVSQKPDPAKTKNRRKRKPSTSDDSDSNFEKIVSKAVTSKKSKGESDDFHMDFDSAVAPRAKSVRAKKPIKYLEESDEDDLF

SMILES | IC50 (HepG2) [µM] | IC50 (MCF7) [µM] | IC50 (BJ) [µM] | IC50 (SW-620) [µM] | IC50 (HeLa) [µM] | IC50 (CAKI-2) [µM] | Drug uptake [1] | Drug uptake [2] | ΔTm (Calf thymus DNA [3]) [°C] | inhibition (qualitative) [4] | Drug uptake [5] | ΔTm (Calf thymus DNA [6]) [°C] | fold change (FC) [7] | fold change (FC) [8] | Activity [9] | fold change (FC) [10] | ΔTm (Calf thymus DNA [11]) [°C] | Activity (Calf thymus DNA [12]) | Activity (Calf thymus DNA [13]) | Activity [14]
N#Cc1ccc2nc(N3Cc4ccccc4C3=O)sc2c1 | 61.5 | 9.93 | 44.5 | > 100 | 54.7 |  |  |  |  |  |  |  |  |  |  |  |  |  |  | 
CC(C)NC(=N)c1ccc2nc(N3Cc4ccccc4C3=O)[nH]c2c1 | > 100 | 0.93 | 5.72 | 71 | 84.3 |  |  |  |  |  |  |  |  |  |  |  |  |  |  | 
CC(C)NC(=N)c1ccc2nc(/N=C3\c4ccccc4CN3c3nc4ccc(C(=N)NC(C)C)cc4s3)sc2c1.Cl.Cl | 68.8 | 90.1 | 4.72 | 49.5 | 52.9 | 40 | Active | Active | 12.7 | Active | Active | 18 |  |  |  |  |  |  |  | 
CC[C@@]1(O)C(=O)OCc2c1cc1n(c2=O)Cc2cc3ccccc3nc2-1 |  |  |  |  |  |  |  |  |  |  |  |  | 2.3 to 2.9 | 2.5 to 3.2 | Active | 2 |  |  |  | 
N#Cc1ccc2nc(/N=C3\c4ccccc4CN3c3nc4ccc(C#N)cc4[nH]3)[nH]c2c1 | 17.9 | 0.02 | > 100 | 70 | 75.7 | > 100 | Active | Active |  |  | Active | -0.4 |  |  |  |  | -0.5 | inactive |  | 
CC(C)NC(=N)c1ccc2nc(/N=C3\c4ccccc4CN3c3nc4ccc(C(=N)NC(C)C)cc4[nH]3)[nH]c2c1.Cl.Cl | 84.8 | 66.1 | > 100 | > 100 | 96.8 | > 100 | Active | Active | 7 | Active | Active | 12.9 |  | 2.2 | Active |  |  |  | Active | 
c1ccc2c(c1)CN(c1nc3ccccc3s1)/C2=N/c1nc2ccccc2s1 | 0.82 | 0.08 | 4.87 | 6.98 | 4.68 | 11.1 | Active | Active |  |  | Active | -1.3 |  |  |  |  | -2.2 | inactive |  | 
N#Cc1ccc2nc(/N=C3\c4ccccc4CN3c3nc4ccc(C#N)cc4s3)sc2c1 |  |  |  |  |  | 21.7 | Active | Active |  |  | Active | -1.1 |  |  |  |  | -0.7 | inactive |  | 
c1ccc2c(c1)CN(c1nc3ccccc3[nH]1)/C2=N/c1nc2ccccc2[nH]1 | 7.85 | 7.47 | 22.4 | > 100 | 9.32 |  |  |  | -0.6 |  |  | -0.7 |  |  |  |  | -0.5 |  |  | 
COc1cc([C@@H]2c3cc4c(cc3[C@@H](O[C@@H]3O[C@@H]5CO[C@@H](C)O[C@H]5[C@H](O)[C@H]3O)[C@H]3COC(=O)[C@H]23)OCO4)cc(OC)c1O |  |  |  |  |  |  |  |  |  |  |  |  |  |  |  |  |  |  |  | Active
N=C(N)c1ccc2nc(N3Cc4ccccc4C3=O)[nH]c2c1 | 91.1 | > 100 | 46.9 | > 100 | 52.2 |  |  |  |  |  |  |  |  |  |  |  |  |  |  | 
O=C1c2ccccc2CN1c1nc2ccc(C3=NCCN3)cc2[nH]1 | 16.6 | 2.9 | 4.71 | 8.67 | 6.12 |  |  |  |  |  |  |  |  |  |  |  |  |  |  | 
N#Cc1ccc2nc(N3Cc4ccccc4C3=O)[nH]c2c1 | 10 | 5.06 | 15.8 | > 100 | 24.1 |  |  |  |  |  |  |  |  |  |  |  |  |  |  | 
